Results from patent publication US20190359653A1, “SELECTIVE PEPTIDE INHIBITORS OF FRIZZLED” (Genentech, Inc., priority 2016, published 2019).

Assays:
[1] = test system: receptor-independent β-catenin signaling in 6-BIO-treated HEK293-TB cells; test: epistasis study, HEK293-TB cells stimulated with 6-BIO; type: cell-based; details: 10 μM 6-BIO, 6 hr; FIG. 2E
[2] = test system: Wnt3a-stimulated β-catenin signaling in HEK293-TB cells; test: luciferase reporter assay, HEK293-TB cells transfected with pCDNA3.2-Wnt3a; type: cell-based
hFZD7 CRD-His = target: T1, hFZD7 CRD-His (Homo sapiens, UniProt O75084); test: SEC-MALS of hFZD7 CRD-His incubated with peptide; type: binding
T1 construct: hFZD7 CRD-His [Gln33-Gly168] was expressed as a secreted protein in Trichoplusia ni cells expressing EndoH; made in house; host or cells: Trichoplusia ni cells expressing EndoH, treated with Kifunensine (baculovirus)
Procedure: Samples were resolved by a Superdex S200 3.2/300 column (General Electric Healthcare Life Science, Pittsburgh, Pa.; cat. no. 28990946) at 0.15 mL/min in 150 mM NaCl, 50 mM Tris-HCl pH 7.5 buffer with 1% DMSO final concentration. Runs were performed on a 1260 infinity HPLC (Agilent Technology, Santa Clara, Calif.) connected to a Dawn Heleos-II multi-angle static Light Scattering (MALS) detector and a Optilab T-rEX differential Refractive Index (dRI) detector (Wyatt Technologies, Santa Barbara, Calif.).
Samples were resolved by a Superdex S200 3.2/300 column (General Electric Healthcare Life Science, Pittsburgh, Pa.; 28990946) at a 0.15 mL/min in 150 mM NaCl, 50 mM Tris-HCl pH 7.5 buffer with 1% DMSO final concentration. Column was connected to a 1260 infinity HPLC (Agilent Technology, Santa Clara, Calif.) connected to a Dawn Heleos-II Multi-Angle static Light Scattering (MALS) detector and the Optilab T-rEX differential Refractive Index (dRI) detectors (Wyatt Technologies, Santa Barbara, Calif.).

[3] = test system: organoids derived from Lgr5-GFP mice; test: flow cytometry of Lgr5-GFP stem cells in organoids; type: cell-based, mouse; details: compared to control DMSO; FIGS. 41A-41C
Procedure: The pharmacological effect of dFz7-21 was further investigated by conducting RNA sequencing on intestinal organoid samples that were treated with dFz7-21 for 6 and 24 h. […] Concurrently, there was also an up-regulation of enterocyte markers (pro-differentiation) in the dFz7-21 treated organoids. Among the most down regulated genes upon dFz7-21 treatment were Lgr5, Olfm4 and Asc12. […] Finally, to assess the effect of dFz7-21 directly on stem cells, the presence of GFP+ stem cells in organoids derived from Lgr5-GFP mice was monitored as described in Tian, H. et al. “A reserve stem cell population in small intestine renders Lgr5-positive cells dispensable.” Nature 478, 255-259 (2011). Treatment with dFz7-21 reduced the number of Lgr5-GFP stem cells compared to control DMSO as assayed by flow cytometry (see FIGS. 41A-41C) and confocal microscopy (data not shown). In FIGS. 41A and 41B, Lgr5-GFP organoids were dissociated, treated with SYTOX and analyzed by flow cytometry.

[4] = test system: Lgr5-GFP organoids pre-treated with CHIR99021; APC^min organoids; test: RT-PCR in organoids with active downstream Wnt signaling (CHIR99021 or APC^min); type: cell-based, mouse; details: peptide 100 μM, 24 h; CHIR99021 5 μM pre-treatment or Apc mutant background
Procedure: Mouse organoids were established from isolated crypts collected from the entire length of the small intestine and maintained as previously described (Sato et al. (2009) Nature 459, 262-265 (2009). All mouse derived tissue was performed according to the animal use guidelines of Genentech, a Member of the Roche Group, and the Institutional Animal Care and Use Committee, conforming to California State legal and ethical practices. Mouse sex was not selected for. Organoids were passaged at least twice per week and grown using IntestiCult Organoid growth media (cat. no. 06005; StemCell Technologies). Peptides were suspended in DMSO and dissolved in media to 1% DMSO final concentration, then added to organoids to initiate drug treatment. Antibodies were added to 10 μg/ml concentration. […]
Briefly, Lgr5-GFP organoids were pre-treated with DMSO or the Gsk3β inhibitor CHIR99021 (5 μM) for 24 h, then treated with DMSO, dFz7-21 (100 μM), or Fz7-21S (100 μM)±CHIR99021. Transcripts were quantified by RT-PCR for Axin2 (FIG. 42A), and Asc12 (FIG. 42B). In a second set of experiments, APC^min organoids were cultured and treated with DMSO, dFz7-21 (100 μM), Fz7-21S (100 μM) for 24 h, and transcripts were quantified by RT-PCR for Axin2 (FIG. 42C), Asc12 (FIG. 42D), and Lgr5 ([…]).

Sequence | inhibition of Wnt signaling in 6-BIO-treated cells [1] | inhibition of Wnt3a signaling [2] | ΔMW (kDa) (hFZD7 CRD-His; 1:10, relative to the DMSO control) | MW (kDa) (hFZD7 CRD-His; protein:peptide 1:10) | number of Lgr5-GFP stem cells [3] | stem cell (Lgr5, Ascl2) and Wnt signaling (Axin2) markers [4]
LPSDDLEFWSHVMY [Fz7-21S, negative control] | Neither Fz7-21 nor Fz7-21S inhibited | not found to inhibit | 2.6 kDa | 23.5 kDa | – | –
LPSDDLEFWCHVMY [dFz7-21] | – | – | – | – | reduced | Little or no effect
